The experiment has as its target T1, human Cereblon WT GST-tagged protein (Homo sapiens, UniProt Q96SW2).
T1 construct: purchased CISBIO 64BDCRBNPEH
Put plainly: CRBN-binding affinity, HTRF (CEREBLON BINDING kit). Particulars: for inhibition at 0.5 µM: read-out: Inhibition Rate at 0.5 µM (%); for inhibition at 2 µM: read-out: Inhibition Rate at 2 µM (%). (In general: Time-resolved FRET reads energy transfer from a long-lived donor to a nearby acceptor.)

This is an account of results in EP4745135A1 (Gluetacs Therapeutics (Shanghai) Co., Ltd., priority 2023, dated 2025).

T1 sequence (Q96SW2 whole entry): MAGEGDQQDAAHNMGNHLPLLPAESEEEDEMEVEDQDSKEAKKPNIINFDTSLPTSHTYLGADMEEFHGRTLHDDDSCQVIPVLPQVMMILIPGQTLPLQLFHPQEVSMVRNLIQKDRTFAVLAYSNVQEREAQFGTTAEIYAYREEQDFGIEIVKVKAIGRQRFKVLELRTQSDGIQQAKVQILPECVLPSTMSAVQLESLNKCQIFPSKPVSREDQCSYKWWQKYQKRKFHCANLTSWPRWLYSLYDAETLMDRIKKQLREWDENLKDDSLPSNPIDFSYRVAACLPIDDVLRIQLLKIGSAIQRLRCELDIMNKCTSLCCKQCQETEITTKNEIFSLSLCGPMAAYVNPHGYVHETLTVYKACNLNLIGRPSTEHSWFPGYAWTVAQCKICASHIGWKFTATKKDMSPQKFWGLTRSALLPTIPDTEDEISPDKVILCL

For `O=C1CCC(N2Cc3cc(CN4CCN(c5ccnc(Cl)c5F)CC4)ccc3C2=S)C(=O)N1` (stereo not shown) [GT-09239, 3-(5-((4-(2-chloro-3-fluoropyridin-4-yl)piperazin-1-yl)methyl)-1-thioxoisoindolin-2-yl)piperidine-2,6-dione], the inhibition (as a rule, how much of the control response was suppressed) at 0.5 µM fell in the range of 60 to 80% and the inhibition at 2 µM was in the range of 80 to 100%.
For `O=C1CCC(N2Cc3cc(CN4CCN(c5ncnc6sc(Br)cc56)CC4)ccc3C2=S)C(=O)N1` (stereo not shown) [GT-09295, 3-(5-((4-(6-bromothieno[2,3-d]pyrimidin-4-yl)piperazin-1-yl)methyl)-1-thioxoisoindolin-2-yl)piperidine-2,6-dione], the inhibition at 0.5 µM lay in the range of 80 to 100% and the inhibition at 2 µM was in the range of 80 to 100%.
For the compound `O=C1CCC(N2Cc3cc(CN4CCN(c5ncnc6scc(-c7ccccc7)c56)CC4)ccc3C2=S)C(=O)N1` (stereo not shown) [GT-09297, 3-(5-((4-(5-phenylthieno[2,3-d]pyrimidin-4-yl)piperazin-1-yl)methyl)-1-thioxoisoindolin-2-yl)piperidine-2,6-dione], the inhibition at 0.5 µM was in the range of 60 to 80% and the inhibition at 2 µM fell in the range of 80 to 100%.
For `O=C1CCC(N2Cc3cc(CN4CCN(c5ccncc5Br)CC4)ccc3C2=S)C(=O)N1` (stereo not shown) [GT-09236, 3-(5-((4-(3-bromopyridin-4-yl)piperazin-1-yl)methyl)-1-thioxoisoindolin-2-yl)piperidine-2,6-dione], the inhibition at 0.5 µM was 60 to 80% and the inhibition at 2 µM lay within 80 to 100%.
In the same order, the values of `O=C1CCC(N2Cc3cc(CN4CC(c5ccnc6cc(F)ccc56)C4)ccc3C2=S)C(=O)N1` (stereo not shown) [GT-09279, 3-(5-((3-(7-fluoroquinolin-4-yl)azetidin-1-yl)methyl)-1-thioxoisoindolin-2-yl)piperidine-2,6-dione] are 60 to 80% and 80 to 100%.
Turning to `O=C1CCC(N2Cc3cc(CN4CCC(c5ncnc6sccc56)CC4)ccc3C2=S)C(=O)N1` (stereo not shown) [GT-09304, 3-(5-((4-(thieno[2,3-d]pyrimidin-4-yl)piperidin-1-yl)methyl)-1-thioxoisoindolin-2-yl)piperidine-2,6-dione], the inhibition at 0.5 µM is 60 to 80% and the inhibition at 2 µM fell in the range of 80 to 100%.
For `O=C1CCC(N2Cc3cc(CN4CCN(c5ncnc(Cl)c5Cl)CC4)ccc3C2=S)C(=O)N1` (stereo not shown) [GT-09254, 3-(5-((4-(5,6-dichloropyrimidin-4-yl)piperazin-1-yl)methyl)-1-thioxoisoindolin-2-yl)piperidine-2,6-dione] the same measures were 60 to 80% and 80 to 100%.
For `O=C1CCC(N2Cc3cc(CN4CCN(c5cccnn5)CC4)ccc3C2=S)C(=O)N1` (stereo not shown) [GT-09265, 3-(5-((4-(pyridazin-3-yl)piperazin-1-yl)methyl)-1-thioxoisoindolin-2-yl)piperidine-2,6-dione] the same measures were 60 to 80% and 80 to 100%.
In the same order, the values of `O=C1CCC(N2Cc3c(CN4CCN(C(c5ccccc5)c5ccccn5)CC4)cccc3C2=S)C(=O)N1` (stereo not shown) [GT-08192, 3-(4-((4-(phenyl(pyridin-2-yl)methyl)piperazin-1-yl)methyl)-1-thioxoisoindolin-2-yl)piperidine-2,6-dione] are 60 to 80% and 80 to 100%.
Consider `O=C1CCC(N2Cc3c(CN4CCN(c5nc6c(c(N7CCOCC7)n5)SCC6)CC4)cccc3C2=S)C(=O)N1` (stereo not shown) [GT-08969, 3-(4-((4-(4-morpholino-6,7-dihydrothieno[3,2-d]pyrimidin-2-yl)piperazin-1-yl)methyl)-1-thioxoisoindolin-2-yl)piperidine-2,6-dione], for which the inhibition at 0.5 µM lay in the range of 60 to 80% and the inhibition at 2 µM is 80 to 100%.
In the same order, the values of `O=C1CCC(N2Cc3c(CN4CCN(c5nc(N6CCNCC6)c6sccc6n5)CC4)cccc3C2=S)C(=O)N1` (stereo not shown) [GT-09036, 3-(4-((4-(4-(piperazin-1-yl)thieno[3,2-d]pyrimidin-2-yl)piperazin-1-yl)methyl)-1-thioxoisoindolin-2-yl)piperidine-2,6-dione] are 60 to 80% and 80 to 100%.
In the same order, the values of `O=C1CCC(N2Cc3c(CN4CCC(N(c5ccccc5)c5ccccn5)CC4)cccc3C2=S)C(=O)N1` (stereo not shown) [GT-08243, 3-(4-((4-(phenyl(pyridin-2-yl)amino)piperidin-1-yl)methyl)-1-thioxoisoindolin-2-yl)piperidine-2,6-dione] are 20 to 30% and 60 to 80%.
For `O=C1CCC(N2Cc3c(CN4CCN(c5ccnc(F)c5F)CC4)cccc3C2=S)C(=O)N1` (stereo not shown) [GT-08736, 3-(4-((4-(2,3-difluoropyridin-4-yl)piperazin-1-yl)methyl)-1-thioxoisoindolin-2-yl)piperidine-2,6-dione] the same measures were 60 to 80% and 80 to 100%.
`O=C1CCC(N2Cc3c(CN4CCC(Nc5ccccc5-c5ccc(Cl)cc5)CC4)cccc3C2=S)C(=O)N1` (stereo not shown) [GT-09034, 3-(4-((4-((4'-chloro-[1,1'-biphenyl]-2-yl)amino)piperidin-1-yl)methyl)-1-thioxoisoindolin-2-yl)piperidine-2,6-dione]: the inhibition at 0.5 µM fell in the range of 40 to 53% and the inhibition at 2 µM was 60 to 80%.
